The source of these data is patent US12685312B2, “Sulfonamide apyrase inhibitors” (Texas Crop Science, Inc., priority 2022, dated 2026).

The structures appear in SMILES notation.

For this experiment, the system named is apyrase. Put plainly: Screen for apyrase inhibitors (Method 1, in vitro phosphate-release absorbance assay). In kind it is biochemical. The conditions noted are these: inhibitor conc at 1 mM stock, 1 hr room temperature, absorbance 630 nm; rounded average of two assay results. The essentials: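 Phosphate-release colorimetric assay (Windsor method) in 60 mM Hepes, 3 mM MgCl2, 3 mM CaCl2, 3 mM ATP, pH 6.5, with compound or DMSO control added. Released phosphate developed with ammonium molybdate and ascorbic acid/TCA, then stopped with citrate/acetic acid.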
Take `CC1Cc2ccccc2N1S(=O)(=O)c1cccc(C(=O)Nc2ccc3c(c2)OCCCO3)c1` (stereo not shown) [I-582, N-(3,4-dihydro-2H-benzo[b][1,4]dioxepin-7-yl)-3-((2-methylindolin-1-yl)sulfonyl)benzamide]: the “% Inhibition of Apyrase” value was found to be 47%.

Regarding `O=C(O)CCc1ccc(S(=O)(=O)Nc2cccc(C(=O)Nc3cccc(C(F)(F)F)c3)c2)cc1` [I-324, 3-(4-(N-(3-((3-(trifluoromethyl)phenyl)carbamoyl)phenyl)sulfamoyl)phenyl)propanoic acid], the “% Inhibition of Apyrase” value is 41%.

Take `O=C(Nc1cccc(NS(=O)(=O)c2ccc(Cl)cc2)c1)c1ccc2[nH]cnc2c1` [I-342, N-(3-((4-chlorophenyl)sulfonamido)phenyl)-1H-benzo[d]imidazole-5-carboxamide]: the “% Inhibition of Apyrase” value stood at 63%.

Regarding `Cc1c(NC(=O)c2cccc(S(=O)(=O)Nc3ccc4c(c3)OCO4)c2)cccc1[N+](=O)[O-]` [I-10, 3-(N-(benzo[d][1,3]dioxol-5-yl)sulfamoyl)-N-(2-methyl-3-nitrophenyl)benzamide], the “% Inhibition of Apyrase” value was determined as 60%.

As to `COc1ccc([N+](=O)[O-])cc1NC(=O)c1cccc(S(=O)(=O)Nc2ccc(Cl)cc2)c1` [I-41, 3-(N-(4-chlorophenyl)sulfamoyl)-N-(2-methoxy-5-nitrophenyl)benzamide], the “% Inhibition of Apyrase” value is reported as 13%.

Consider `COc1ccc(S(=O)(=O)N2CCc3ccccc32)cc1C(=O)Nc1ccc2c(c1)OCCO2` [I-577, N-(2,3-dihydrobenzo[b][1,4]dioxin-6-yl)-5-(indolin-1-ylsulfonyl)-2-methoxybenzamide], for which the “% Inhibition of Apyrase” value is 48%.

In the case of `Cc1cccc(NS(=O)(=O)c2ccc(C(=O)Nc3cccc(C#N)c3)cc2)c1C` [I-855, N-(3-cyanophenyl)-4-(N-(2,3-dimethylphenyl)sulfamoyl)benzamide], the “% Inhibition of Apyrase” value is listed as 82%.

For `COc1ccc([N+](=O)[O-])cc1NC(=O)c1cccc(S(=O)(=O)N2CCc3ccccc32)c1` [I-263, 3-(indolin-1-ylsulfonyl)-N-(2-methoxy-5-nitrophenyl)benzamide], the “% Inhibition of Apyrase” value is 59%.

On to `O=C(c1ccc(S(=O)(=O)Nc2ccccc2)cc1)N1CCCc2ccccc21` [I-397, N-phenyl-4-(1,2,3,4-tetrahydroquinoline-1-carbonyl)benzenesulfonamide], for which the “% Inhibition of Apyrase” value was found to be 45%.

On to `COc1ccc(C(=O)Nc2ccc(F)c(F)c2)cc1S(=O)(=O)Nc1ccc(Br)cc1` [I-26, 3-(N-(4-bromophenyl)sulfamoyl)-N-(3,4-difluorophenyl)-4-methoxybenzamide], for which the “% Inhibition of Apyrase” value was 28%.

`Cc1cccc(NS(=O)(=O)c2ccc(C)c(C(=O)N3CCCc4ccccc43)c2)c1` [I-489, 4-methyl-3-(1,2,3,4-tetrahydroquinoline-1-carbonyl)-N-(m-tolyl)benzenesulfonamide]: the “% Inhibition of Apyrase” value turned out to be 58%.

Take `CC1Cc2ccccc2N1S(=O)(=O)c1cccc(C(=O)Nc2cccc3cccnc23)c1` (stereo not shown) [I-484, 3-((2-methylindolin-1-yl)sulfonyl)-N-(quinolin-8-yl)benzamide]: the “% Inhibition of Apyrase” value was found to be 58%.

For the molecule `O=C(Nc1ccccc1NS(=O)(=O)c1cccs1)c1ccc(Cl)cc1` [I-832, 4-chloro-N-(2-(thiophene-2-sulfonamido)phenyl)benzamide], the “% Inhibition of Apyrase” value came to 58%.

On to `O=C(Nc1cccc([N+](=O)[O-])c1)c1ccc(Br)c(S(=O)(=O)Nc2ccc(F)cc2)c1` [I-19, 4-bromo-3-(N-(4-fluorophenyl)sulfamoyl)-N-(3-nitrophenyl)benzamide], for which the “% Inhibition of Apyrase” value is 50%.

Take `COc1ccc2c(c1)CCCN2C(=O)c1ccc(S(=O)(=O)Nc2ccccc2C)cc1` [I-872, 4-(6-methoxy-1,2,3,4-tetrahydroquinoline-1-carbonyl)-N-(o-tolyl)benzenesulfonamide]: the “% Inhibition of Apyrase” value is 56%.

As to `COc1ccc(NC(=O)c2cccc(S(=O)(=O)Nc3ccc(Cl)cc3)c2)cc1` [I-246, 3-(N-(4-chlorophenyl)sulfamoyl)-N-(4-methoxyphenyl)benzamide], the “% Inhibition of Apyrase” value is on record as 66%.

With `CC(=O)c1cccc(NS(=O)(=O)c2cc(C(=O)Nc3cccc([N+](=O)[O-])c3)ccc2C)c1` [I-29, 3-(N-(3-acetylphenyl)sulfamoyl)-4-methyl-N-(3-nitrophenyl)benzamide], the “% Inhibition of Apyrase” value came to 22%.

With `COc1ccccc1C(=O)Nc1ccc(S(=O)(=O)Nc2cccc(Cl)c2)cc1` [I-995, N-(4-(N-(3-chlorophenyl)sulfamoyl)phenyl)-2-methoxybenzamide], the “% Inhibition of Apyrase” value was 46%.

With `Cc1cccc(NS(=O)(=O)c2ccc(C(=O)Nc3cccc(C(=O)N(C)C)c3)cc2)c1C` [I-894, 3-(4-(N-(2,3-dimethylphenyl)sulfamoyl)benzamido)-N,N-dimethylbenzamide], the “% Inhibition of Apyrase” value is given as 18%.

As to `CCOc1ccc(NS(=O)(=O)c2c(C)cccc2NC(=O)c2ccc(Oc3ccccc3)cc2)cc1` [I-825, N-(2-(N-(4-ethoxyphenyl)sulfamoyl)-3-methylphenyl)-4-phenoxybenzamide], the “% Inhibition of Apyrase” value came to 48%.

With `O=C(c1cccc(S(=O)(=O)Nc2ccc(Br)cc2)c1)N1CCc2sccc2C1` [I-262, N-(4-bromophenyl)-3-(4,5,6,7-tetrahydrothieno[3,2-c]pyridine-5-carbonyl)benzenesulfonamide], the “% Inhibition of Apyrase” value was found to be 59%.

On to `COc1ccc(C(=O)Nc2ccc(S(=O)(=O)Nc3ccc(Cl)cc3)cc2)cc1` [I-988, N-(4-(N-(4-chlorophenyl)sulfamoyl)phenyl)-4-methoxybenzamide], for which the “% Inhibition of Apyrase” value is given as 55%.

As to `COC(=O)c1cccc2c1CCCN2C(=O)c1cccc(S(=O)(=O)N(C)c2ccccc2)c1` [I-580, methyl 1-(3-(N-methyl-N-phenylsulfamoyl)benzoyl)-1,2,3,4-tetrahydroquinoline-5-carboxylate], the “% Inhibition of Apyrase” value is given as 47%.

Take `O=C(Nc1cccc(S(=O)(=O)Nc2ccc(SC(F)F)cc2)c1)c1ccco1` [I-772, N-(3-(N-(4-((difluoromethyl)thio)phenyl)sulfamoyl)phenyl) furan-2-carboxamide]: the “% Inhibition of Apyrase” value was found to be 6%.

As to `O=C(Nc1cccc([N+](=O)[O-])c1)c1cccc(S(=O)(=O)Nc2cccc(F)c2)c1` [I-51, 3-(N-(3-fluorophenyl)sulfamoyl)-N-(3-nitrophenyl)benzamide], the “% Inhibition of Apyrase” value turned out to be 10%.

With `Cc1cc(F)c2c(c1)CCCN2C(=O)c1cccc(S(=O)(=O)N2CCc3ccccc32)c1` [I-493, (8-fluoro-6-methyl-3,4-dihydroquinolin-1(2H)-yl)(3-(indolin-1-ylsulfonyl)phenyl)methanone], the “% Inhibition of Apyrase” value is given as 58%.

As for `Cc1cc(C(=O)Nc2cccc(S(=O)(=O)Nc3ccccc3F)c2)c(C)n1C1CC1` [I-705, 1-cyclopropyl-N-(3-(N-(2-fluorophenyl)sulfamoyl)phenyl)-2,5-dimethyl-1H-pyrrole-3-carboxamide], the “% Inhibition of Apyrase” value came out at 64%.

In the case of `O=C(c1ccc(NS(=O)(=O)c2ccc3c(c2)OCCO3)cc1)N1CCCc2ccccc21` [I-912, N-(4-(1,2,3,4-tetrahydroquinoline-1-carbonyl)phenyl)-2,3-dihydrobenzo[b][1,4]dioxine-6-sulfonamide], the “% Inhibition of Apyrase” value was determined as 59%.

Turning to `O=C(Nc1cccc2ncccc12)c1cccc(S(=O)(=O)N2CCc3ccccc32)c1` [I-596, 3-(indolin-1-ylsulfonyl)-N-(quinolin-5-yl)benzamide], the “% Inhibition of Apyrase” value was determined as 35%.

In the case of `Cc1cc(S(=O)(=O)Nc2ccc(C(=O)Nc3ccc4c(c3)OCO4)cc2)ccc1F` [I-920, N-(benzo[d][1,3]dioxol-5-yl)-4-((4-fluoro-3-methylphenyl)sulfonamido)benzamide], the “% Inhibition of Apyrase” value worked out at 57%.

On to `Cc1ccc(NS(=O)(=O)c2ccc(C(=O)N3c4ccccc4CC3C)cc2)cc1` (stereo not shown) [I-391, 4-(2-methylindoline-1-carbonyl)-N-(p-tolyl)benzenesulfonamide], for which the “% Inhibition of Apyrase” value is recorded as 62%.

Turning to `COc1ccc([N+](=O)[O-])cc1NS(=O)(=O)c1ccc(C(=O)Nc2ccc(F)cc2F)cc1` [I-412, N-(2,4-difluorophenyl)-4-(N-(2-methoxy-5-nitrophenyl)sulfamoyl)benzamide], the “% Inhibition of Apyrase” value is 18%.

Turning to `Cc1ccc(C)c(S(=O)(=O)Nc2ccc(C(=O)Nc3ccc4c(c3)OCO4)cc2)c1` [I-929, N-(benzo[d][1,3]dioxol-5-yl)-4-((2,5-dimethylphenyl)sulfonamido)benzamide], the “% Inhibition of Apyrase” value came to 55%.

Regarding `CC(=O)NS(=O)(=O)c1ccc(NC(=O)c2cccc(S(=O)(=O)N3CCc4ccccc43)c2)cc1` [I-608, N-(4-(N-acetylsulfamoyl)phenyl)-3-(indolin-1-ylsulfonyl)benzamide], the “% Inhibition of Apyrase” value was 14%.

`O=C(Nc1ccccc1NS(=O)(=O)c1cccs1)c1cc(Br)ccc1F` [I-835, 5-bromo-2-fluoro-N-(2-(thiophene-2-sulfonamido)phenyl)benzamide]: the “% Inhibition of Apyrase” value is 52%.

As for `Nc1c(Cl)cc(NC(=O)c2cccc(S(=O)(=O)N3CCc4ccccc43)c2)cc1Cl` [I-439, N-(4-amino-3,5-dichlorophenyl)-3-(indolin-1-ylsulfonyl)benzamide], the “% Inhibition of Apyrase” value turned out to be 63%.

On to `O=C(Nc1cccc([N+](=O)[O-])c1)c1cccc(S(=O)(=O)N2CCc3ccccc32)c1` [I-38, 3-(indolin-1-ylsulfonyl)-N-(3-nitrophenyl)benzamide], for which the “% Inhibition of Apyrase” value is 14%.

`CN(c1ccccc1)S(=O)(=O)c1cccc(NC(=O)c2ccncc2)c1` [I-768, N-(3-(N-methyl-N-phenylsulfamoyl)phenyl)isonicotinamide]: the “% Inhibition of Apyrase” value is recorded as 7%.

Turning to `O=C(NCCC1CCCO1)c1cccc(S(=O)(=O)Nc2ccc(Br)cc2)c1` (stereo not shown) [I-42, 3-(N-(4-bromophenyl)sulfamoyl)-N-(2-(tetrahydrofuran-2-yl)ethyl)benzamide], the “% Inhibition of Apyrase” value stood at 13%.

Regarding `O=C(Nc1ccc(S(=O)(=O)Nc2cccc(C(F)(F)F)c2)cc1)c1ccccc1` [I-1000, N-(4-(N-(3-(trifluoromethyl)phenyl)sulfamoyl)phenyl) benzamide], the “% Inhibition of Apyrase” value turned out to be 28%.
